From patent US5726311A, “7-disubstituted-methyl-4-oxo-3H,5H-pyrrolo[3,2-d]pyrimidine and pharmaceutical uses and compositions containing the same” (BioCryst Pharmaceuticals, Inc., priority 1995, dated 1998) come the findings set out here.

As usually defined, the IC50 is the concentration that inhibits the measured activity by half. A lower IC50 goes with inhibition by little substance.

Molecules are shown by their SMILES.

The test addresses T1, purine nucleoside phosphorylase (PNP) (Bos taurus, UniProt P55859).
T1 sequence (P55859 1-289): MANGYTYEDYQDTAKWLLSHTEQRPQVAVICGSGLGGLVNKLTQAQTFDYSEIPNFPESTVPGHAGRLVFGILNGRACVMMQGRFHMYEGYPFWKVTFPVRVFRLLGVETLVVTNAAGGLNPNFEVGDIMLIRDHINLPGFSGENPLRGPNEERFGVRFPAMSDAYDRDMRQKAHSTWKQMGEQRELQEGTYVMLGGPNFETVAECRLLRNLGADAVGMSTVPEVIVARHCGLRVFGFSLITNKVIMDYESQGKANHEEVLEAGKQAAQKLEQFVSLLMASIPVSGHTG
The experiment in a line: Purine nucleoside phosphorylase (PNP) radiochemical enzyme assay, [14C]-hypoxanthine formation from [14C]-inosine.

The mark [1] stands for this setting: IC50 (nM), table of Examples 36-42, phosphate concentration not printed in table (Ex. 37 and 38 values agree with 1 mM phosphate in text).
The mark [2] stands for this setting: IC50 (PNP inhibition), 1 mM phosphate, calf spleen PNP.
Setting [3] is: IC50 (PNP inhibition), 50 mM phosphate, calf spleen PNP.

Under setting [1], `Nc1nc(O)c2[nH]c(N)c(Cc3cccs3)c2n1` [2,6-diamino-3,5-dihydro-7-(2-thienylmethyl)-4H-pyrollo-[3,2-d]pyrimidine-4-one, reference compound] showed an IC50 of 160 nM. This counts as sub-micromolar.

In the case of `COC(=O)CC(c1ccccc1)c1c[nH]c2c(=O)[nH]c(N)nc12` (stereo not shown) [Example 19, 3-(2-amino-4-oxo-3H,5H-pyrrolo[3,2-d]pyrimidin-7-yl)-3-phenylpropanoic acid, methyl ester], the “enzyme inhibition activity (IC50), in words” value (phosphate concentration not stated) is given as “Significant activity”.

For the molecule `N#CCC(c1cccc(Cl)c1)c1c[nH]c2c(=O)[nH]cnc12` (stereo not shown) [Example 40], the IC50 under setting [1] was found to be 10 nM.

The molecule `N#CCC(c1cc(Cl)cc(Cl)c1Cl)c1c[nH]c2c(=O)[nH]c(N)nc12` (stereo not shown) [Example 8A] yielded a concentration for half-maximal inhibition (IC50) under setting [2] of 640 nM and an IC50 under setting [3] of 10000 nM.

As for `Nc1nc(O)c2[nH]cc(C(CC(=O)O)c3ccccc3)c2n1` (stereo not shown) [Example 15, 3-(2-amino-4-oxo-3H,5H-pyrrolo[3,2-d]pyrimidin-7-yl)-3-phenylpropanoic acid], the IC50 reads like this: under setting [2], 12 nM; under setting [3], 190 nM.
